This note sets out measurements from US8987312B2, “Alpha-keto heterocycles as FAAH inhibitors” (The Scripps Research Institute, priority 2008, dated 2015).

What all share (assay type): biochemical
In assay [1] the target is T1, purified recombinant rat FAAH (Rattus norvegicus, UniProt P97612).
T1 construct: The truncated rat FAAH (rFAAH) was expressed in E. coli and purified as described; made in house; host or cells: Escherichia coli
T1 sequence (P97612 30-579 limits assumed): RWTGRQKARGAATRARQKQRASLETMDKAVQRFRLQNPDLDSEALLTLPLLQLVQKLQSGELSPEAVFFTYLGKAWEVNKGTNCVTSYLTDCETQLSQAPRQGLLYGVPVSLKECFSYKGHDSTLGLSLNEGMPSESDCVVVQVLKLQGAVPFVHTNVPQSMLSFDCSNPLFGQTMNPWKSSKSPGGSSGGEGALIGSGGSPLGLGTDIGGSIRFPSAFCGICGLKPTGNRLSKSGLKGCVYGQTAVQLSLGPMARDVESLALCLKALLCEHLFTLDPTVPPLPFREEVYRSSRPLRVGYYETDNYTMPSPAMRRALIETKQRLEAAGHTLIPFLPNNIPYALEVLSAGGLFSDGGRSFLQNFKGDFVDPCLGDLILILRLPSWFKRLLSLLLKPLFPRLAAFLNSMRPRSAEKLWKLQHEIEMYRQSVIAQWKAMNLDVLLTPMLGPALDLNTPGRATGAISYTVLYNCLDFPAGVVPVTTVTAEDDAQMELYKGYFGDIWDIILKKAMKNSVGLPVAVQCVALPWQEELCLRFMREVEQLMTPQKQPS
Nature of the assay: FAAH inhibition enzyme assay (14C-oleamide hydrolysis, Dixon plot), rat enzyme. The source says: The purified recombinant rFAAH was used in the inhibition assays unless otherwise indicated.
The ^14C-labeled oleamide (substrate) and oleic acid (product) were extracted with EtOAc and analyzed by TLC.

The target of assay [2] is T2, triacylglycerol hydrolase (TGH) (Mus musculus, UniProt Q8VCT4).
T2 construct: with FP-Rh in brain and heart membrane proteome; from tissue; host or cells: brain and heart membrane proteome
T2 sequence (Q8VCT4 19-565): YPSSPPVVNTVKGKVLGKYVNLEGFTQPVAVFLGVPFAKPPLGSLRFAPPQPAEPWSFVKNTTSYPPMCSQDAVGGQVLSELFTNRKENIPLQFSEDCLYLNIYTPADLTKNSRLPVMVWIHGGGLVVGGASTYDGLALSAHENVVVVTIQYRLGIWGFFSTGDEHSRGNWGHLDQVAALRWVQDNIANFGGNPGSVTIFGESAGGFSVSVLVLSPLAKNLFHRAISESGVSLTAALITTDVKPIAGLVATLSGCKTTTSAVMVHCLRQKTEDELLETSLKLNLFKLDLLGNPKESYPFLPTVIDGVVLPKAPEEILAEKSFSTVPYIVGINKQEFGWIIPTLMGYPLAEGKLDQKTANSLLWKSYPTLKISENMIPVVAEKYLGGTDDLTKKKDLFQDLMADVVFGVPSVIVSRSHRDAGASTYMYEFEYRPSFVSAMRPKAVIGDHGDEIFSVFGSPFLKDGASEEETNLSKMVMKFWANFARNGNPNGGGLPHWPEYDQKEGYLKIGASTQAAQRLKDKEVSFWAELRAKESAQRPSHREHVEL
Nature of the assay: Activity based protein profiling (proteome-wide selectivity screening, FP-Rh), TGH. The conditions noted are these: Table 4; for IC50: activity based protein profiling; for TGH selectivity (value in parentheses): ratio TGH IC50 / FAAH IC50 (fold selectivity for FAAH). The source says: (§1) Enzyme targets such as FAAH, KIAA1363, and TGH are labeled at the left margin.

In the next assay the target is T3, KIAA1363 (Mus musculus, UniProt Q8BLF1).
T3 construct: with FP-Rh in brain and heart membrane proteome; from tissue; host or cells: brain and heart membrane proteome
T3 sequence (Q8BLF1 1-408): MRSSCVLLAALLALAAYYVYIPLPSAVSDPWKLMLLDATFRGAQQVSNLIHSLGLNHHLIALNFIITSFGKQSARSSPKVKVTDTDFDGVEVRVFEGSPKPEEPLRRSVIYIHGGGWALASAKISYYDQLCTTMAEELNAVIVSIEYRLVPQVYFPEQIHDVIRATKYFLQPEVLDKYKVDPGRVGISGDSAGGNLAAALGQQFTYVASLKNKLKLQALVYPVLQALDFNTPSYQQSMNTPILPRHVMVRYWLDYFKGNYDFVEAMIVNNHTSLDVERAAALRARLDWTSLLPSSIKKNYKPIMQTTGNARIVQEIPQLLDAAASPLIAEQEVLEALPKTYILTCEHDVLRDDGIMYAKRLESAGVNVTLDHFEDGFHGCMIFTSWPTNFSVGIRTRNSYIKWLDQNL
Nature of the assay: Activity based protein profiling (proteome-wide selectivity screening, FP-Rh), KIAA1363. Particulars: Table 4; for IC50: activity based protein profiling.
Source text: as §1

[3] abbreviates: rat FAAH, pH 9 assay conditions.
Where [4] appears, read: Table 2, rat FAAH, pH 9 assay conditions, read-out: Ki.

For orientation: Ki means a dissociation constant, usually derived from enzyme kinetics or from competition with a known ligand. As a reminder, the IC50 is the midpoint of a concentration-inhibition curve.

Read-outs that look alike come from different tables or passages of the source. Some results are limits rather than exact numbers.

As to `Cn1nnnc1C(=O)CCCCCCc1ccccc1` [19b, 1-(1-Methyl-1H-tetrazol-5-yl)-7-phenylheptan-1-one], the “FAAH inhibition (in words)” value in assay [1] (setting [3]) is on record as “displayed FAAH inhibition at levels consistent with related compounds”.
`O=C(CCCCCCc1ccccc1)c1cnc(-c2ccccn2)o1` [compound 6, 7-Phenyl-1-(2-(pyridin-2-yl)oxazol-5-yl)-heptan-1-one]: the “loss of FAAH inhibition” value in assay [1] (with respect to oxazole 2) is reported as greater than 4000 fold.
Regarding `O=C(CCCCCCc1ccccc1)c1nnc(-c2cccs2)s1` [12d, 7-Phenyl-1-(5-(thiophen-2-yl)-1,3,4-thiadiazol-2-yl)-heptan-1-one], the inhibition constant (Ki) in assay [1] (setting [4]) turned out to be 27 nM.
The same measure, in the same setting: to `O=C(CCCCCCc1ccccc1)c1ccc(-c2ccco2)nn1` [13c, 1-(6-(Furan-2-yl)-pyridazin-3-yl)-7-phenylheptan-1-one] belongs 40 nM; to `O=C(CCCCCCc1ccccc1)c1nnn(-c2ccco2)n1` [15c, 1-(2-(Furan-2-yl)-2H-tetrazol-5-yl)-7-phenylheptan-1-one], 5 nM.
Regarding `COC(=O)c1nnc(C(=O)CCCCCCc2ccccc2)s1` [12h, Methyl 5-(7-Phenylheptanoyl)-1,3,4-thiadiazole-2-carboxylate], the figures for the IC50 (in assay [2]; at KIAA1363) were 11000 nM and greater than 100000 nM, respectively.
The corresponding values for `O=C(CCCCCCc1ccccc1)c1ccc(-c2ccccn2)nn1` [13b, 7-Phenyl-1-(6-(pyridin-2-yl)-pyridazin-3-yl)-heptan-1-one] are greater than 100000 nM and greater than 100000 nM.
In the same order, the values of `COC(=O)c1nnc(C(=O)CCCCCCc2ccccc2)o1` [8h, Methyl 5-(7-Phenylheptanoyl)-1,3,4-oxadiazole-2-carboxylate] are 2000 nM and greater than 100000 nM.
For `O=C(CCCCCCc1ccccc1)c1nnc(-c2cccs2)[nH]1` [14d, 7-Phenyl-1-(5-(thiophen-2-yl)-4H-1,2,4-triazol-3-yl)-heptan-1-one], the Ki in assay [1] (setting [4]) was greater than 1000 nM.
As for `O=C(CCCCCCc1ccccc1)c1nnc(-c2ccccc2)o1` [8e], in assay [2], the “TGH selectivity (value in parentheses)” value is reported as 10. In addition, the Ki worked out at 2.2 nM in assay [1] (setting [4]) and 2.2 nM in assay [1] (Table 4, read-out: FAAH Ki). On KIAA1363 (ratio KIAA1363 IC50 / FAAH IC50 (fold selectivity for FAAH)), the “KIAA1363 selectivity (value in parentheses)” value was greater than 4000.
Regarding `O=C(CCCCCCc1ccccc1)c1nnc(-c2ccccn2)[nH]1` [14b, 7-Phenyl-1-(5-(pyridin-2-yl)-4H-1,2,4-triazol-3-yl)-heptan-1-one], the Ki in assay [1] (setting [4]) is greater than 100000 nM.
The same measure, in the same setting: next, `O=C(CCCCCCc1ccccc1)c1ncc(-c2ccco2)s1` [11c, 1-(5-(Furan-2-yl)-thiazol-2-yl)-7-phenylheptan-1-one]: 1500 nM.
Same read-out and setting: to `O=C(CCCCCCc1ccccc1)c1noc(-c2ccco2)n1` [10c, 1-(5-(Furan-2-yl)-1,2,4-oxadiazol-3-yl)-7-phenylheptan-1-one] belongs 8.5 nM.
On to `COC(=O)c1nnc(C(=O)CCCCCCc2ccccc2)[nH]1` [14h, Methyl 5-(7-Phenylheptanoyl)-4H-1,2,4-triazole-3-carboxylate], for which, in assay [1] (setting [3]), the “FAAH inhibition (in words)” value was “inactive”.
Turning to `O=C(CCCCCCc1ccccc1)c1nnc(-c2ccco2)s1` [12c, 1-(5-(Furan-2-yl)-1,3,4-thiadiazol-2-yl)-7-phenylheptan-1-one], in assay [1] (setting [4]), the Ki turned out to be 7.4 nM.
For `O=C(CCCCCCc1ccccc1)c1ncc(-c2cccs2)s1` [11d, 7-Phenyl-1-(5-(thiophen-2-yl)-thiazol-2-yl)-heptan-1-one], the Ki in assay [1] (setting [4]) is 2000 nM.
On the same count and under the same terms, to `O=C(CCCCCCc1ccccc1)c1nnc(-c2cccs2)o1` [8d, 7-Phenyl-1-(5-(thien-2-yl)-1,3,4-oxadiazol-2-yl)-heptan-1-one] belongs 0.8 nM.
Still for that read-out and setting: next, `O=C(CCCCCCc1ccccc1)c1nnn(-c2ccccc2)n1` [15e, 7-Phenyl-1-(2-phenyl-2H-tetrazol-5-yl)-heptan-1-one]: 16 nM; `O=C(CCCCCCc1ccccc1)c1nc(-c2ccco2)no1` [9c, 1-(3-(Furan-2-yl)-1,2,4-oxadiazol-5-yl)-7-phenylheptan-1-one]: 1 nM.
Regarding `O=C(O)c1cccc(-c2cnc(C(=O)CCCCCCc3ccccc3)s2)n1` [11g, 6-(2-(7-Phenylheptanoyl)thiazol-5-yl)-picolinic Acid], the IC50 in assay [2] is 30000 nM; on KIAA1363, greater than 100000 nM.
For the compound `O=C(CCCCCCc1ccccc1)c1nnn(-c2cccs2)n1` [15d, 7-Phenyl-1-(2-(thiophen-2-yl)-2H-tetrazol-5-yl)-heptan-1-one], the Ki in assay [1] (setting [4]) came out at 8.5 nM.
The same measure, in the same setting: next, `O=C(CCCCCCc1ccccc1)c1noc(-c2cccs2)n1` [10d, 7-Phenyl-1-(5-(thiophen-2-yl)-1,2,4-oxadiazol-3-yl)-heptan-1-one]: 44 nM.
In the case of `O=C(CCCCCCc1ccccc1)c1ncc(-c2ccccn2)s1` [11b, 7-Phenyl-1-(5-(pyridin-2-yl)-thiazol-2-yl)-heptan-1-one], the IC50 in assay [2] is 8000 nM; against KIAA1363, greater than 100000 nM.
For the compound `O=C(CCCCCCc1ccccc1)c1nnc[nH]1` [14a, 7-Phenyl-1-(4H-1,2,4-triazol-3-yl)-heptan-1-one], the Ki in assay [1] (setting [4]) is greater than 1000 nM.
For `COC(=O)c1cccc(-c2nc(C(=O)CCCCCCc3ccccc3)no2)n1` [10f, Methyl 6-(3-(7-Phenylheptanoyl)-1,2,4-oxadiazol-5-yl)-picolinate], at KIAA1363, the IC50 was greater than 100000 nM.
Take `O=C(O)c1cccc(-c2nnc(C(=O)CCCCCCc3ccccc3)s2)n1` [12g, 6-(5-(7-Phenylheptanoyl)-1,3,4-thiadiazol-2-yl)-picolinic Acid]: the IC50 (in assay [2]; on KIAA1363) was greater than 100000 nM in each case.
For the compound `O=C(O)c1cccc(-c2noc(C(=O)CCCCCCc3ccccc3)n2)n1` [9g, 6-(5-(7-Phenylheptanoyl)-1,2,4-oxadiazol-3-yl)-picolinic Acid], the IC50 in assay [2] is 40000 nM; against KIAA1363, greater than 100000 nM.
As for `COC(=O)c1cccc(-c2nnc(C(=O)CCCCCCc3ccccc3)s2)n1` [12f, Methyl 6-(5-(7-Phenylheptanoyl)-1,3,4-thiadiazol-2-yl)-picolinate], the IC50 on KIAA1363 is greater than 100000 nM.
As for `O=C(CCCCCCc1ccccc1)c1nc(-c2cccs2)no1` [9d, 7-Phenyl-1-(3-(thiophen-2-yl)-1,2,4-oxadiazol-5-yl)-heptan-1-one], in assay [1] (setting [4]), the Ki was 1.6 nM.
Consider `O=C(O)c1cccc(-c2ccc(C(=O)CCCCCCc3ccccc3)nn2)n1` [13g, 6-(6-(7-Phenylheptanoyl)-pyridazin-3-yl)-picolinic Acid], for which the IC50 (in assay [2]; against KIAA1363) was greater than 100000 nM in each case.
`O=C(CCCCCCc1ccccc1)c1ncc(-c2ccccn2)o1` [compound 2, reference compound] registered an IC50 in assay [2] of 600 nM.
As to `Cn1nnc(C(=O)CCCCCCc2ccccc2)n1` [19a, 1-(2-Methyl-2H-tetrazol-5-yl)-7-phenylheptan-1-one], the “FAAH inhibition (in words)” value in assay [1] (setting [3]) is “displayed FAAH inhibition at levels consistent with related compounds”.
Consider `O=C(CCCCCCc1ccccc1)c1nnc(-c2ccco2)[nH]1` [14c, 1-(5-(Furan-2-yl)-4H-1,2,4-triazol-3-yl)-7-phenylheptan-1-one], for which the Ki in assay [1] (setting [4]) was greater than 1000 nM.
Take `O=C(CCCCCCc1ccccc1)c1ccc(-c2cccs2)nn1` [13d, 7-Phenyl-1-(6-(thiophen-2-yl)-pyridazin-3-yl)-heptan-1-one]: the Ki in assay [1] (setting [4]) is 46 nM.
`O=C(CCCCCCc1ccccc1)c1nnc(-c2ccco2)o1` [8c]: the “TGH selectivity (value in parentheses)” value in assay [2] was 80. In addition, the Ki in assay [1] (setting [4]) worked out at 0.56 nM.
